Legend:
Conditions in all cases: percent of the DMSO-treated condition
yeast OLE1 = target: T1, yeast OLE1 (Saccharomyces cerevisiae, UniProt P21147); experiment: Growth of yeast surviving solely on yeast OLE1; type: cell-based
T1 construct: expressed in transfected cells; host or cells: S. cerevisiae ole1Δ strain (W303 pdr1Δ pdr3Δ background), plasmid pRS316 with TDH3 promoter and CYC1 terminator
T1 sequence (P21147 1-510): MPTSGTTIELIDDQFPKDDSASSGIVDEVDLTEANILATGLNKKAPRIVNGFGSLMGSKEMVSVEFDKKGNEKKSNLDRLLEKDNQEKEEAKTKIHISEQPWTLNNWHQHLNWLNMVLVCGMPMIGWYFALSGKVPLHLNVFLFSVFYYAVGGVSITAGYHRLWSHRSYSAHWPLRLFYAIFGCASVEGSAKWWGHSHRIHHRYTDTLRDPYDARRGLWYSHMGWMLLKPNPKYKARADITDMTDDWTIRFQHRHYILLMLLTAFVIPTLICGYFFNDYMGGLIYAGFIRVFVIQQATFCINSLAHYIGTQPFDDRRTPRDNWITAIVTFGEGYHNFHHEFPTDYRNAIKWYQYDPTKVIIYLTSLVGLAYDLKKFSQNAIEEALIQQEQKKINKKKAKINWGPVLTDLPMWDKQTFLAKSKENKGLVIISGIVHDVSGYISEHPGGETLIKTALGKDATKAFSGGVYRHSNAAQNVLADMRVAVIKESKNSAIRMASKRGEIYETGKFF
Protocol: (§1) FIG. 6 is a series of graphs showing that commercial Scd inhibitors target human SCD1/SCD5 in yeast. Yeast surviving solely on yeast OLE1, or human SCD1 or SCD5, were treated with four commercial Scd inhibitors at indicated concentrations. Data are expressed as a percent of the DMSO-treated condition.
(§2) FIG. 7 is a series of graphs showing that 1,2,4-oxadiazoles target human SCD1 and SCD5. Three “SCD” strains expressing yeast OLE1 or human SCD1 or SCD5 were treated with five representative 1,2,4-oxadiazoles and a cycloheximide toxicity control at concentrations indicated on the logic x-axis. The y-axis indicates the percent of the DMSO-treated condition. […] Approximately one half of all (250) 1,2,4-oxadiazoles tested inhibited SCD1 or SCD5 in a manner that was reversed by oleic/palmitoleic acid treatment.

SCD1 = target: T2, SCD1 (Homo sapiens, UniProt O00767); experiment: Growth of yeast surviving solely on human SCD1; type: cell-based
T2 construct: host or cells: S. cerevisiae ole1Δ strain, plasmid pRS316 with TDH3 promoter and CYC1 terminator
T2 sequence (O00767 1-359): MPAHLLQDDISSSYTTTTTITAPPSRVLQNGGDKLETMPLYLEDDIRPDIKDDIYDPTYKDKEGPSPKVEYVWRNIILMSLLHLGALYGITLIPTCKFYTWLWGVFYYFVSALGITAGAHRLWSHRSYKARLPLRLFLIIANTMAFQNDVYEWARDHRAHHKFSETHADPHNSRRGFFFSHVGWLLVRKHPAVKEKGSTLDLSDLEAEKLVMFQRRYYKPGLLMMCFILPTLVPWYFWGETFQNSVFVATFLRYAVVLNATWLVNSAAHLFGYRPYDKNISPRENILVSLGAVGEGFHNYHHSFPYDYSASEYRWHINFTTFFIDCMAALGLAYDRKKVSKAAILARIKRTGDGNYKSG
Protocol: as §1, §2

SCD5 = target: T3, SCD5 (Homo sapiens, UniProt Q86SK9); experiment: Growth of yeast surviving solely on human SCD5; type: cell-based, yeast expressing human SCD5
T3 construct: host or cells: S. cerevisiae ole1Δ strain, plasmid pRS316 with TDH3 promoter and CYC1 terminator
T3 sequence (Q86SK9 1-330): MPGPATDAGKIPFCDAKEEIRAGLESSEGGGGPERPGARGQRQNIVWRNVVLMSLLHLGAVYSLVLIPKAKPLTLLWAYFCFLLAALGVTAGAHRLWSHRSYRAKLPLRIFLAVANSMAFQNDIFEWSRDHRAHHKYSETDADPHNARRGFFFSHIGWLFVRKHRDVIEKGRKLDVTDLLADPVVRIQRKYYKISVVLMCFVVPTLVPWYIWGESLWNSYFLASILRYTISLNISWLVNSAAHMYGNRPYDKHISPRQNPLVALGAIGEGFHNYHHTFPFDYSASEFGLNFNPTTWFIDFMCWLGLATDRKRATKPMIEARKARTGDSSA
Protocol: as §1, §2

C[C@@H]1C[C@@H]([C@H](O)CC2CC(=O)NC(=O)C2)C(=O)[C@@H](C)C1 [Cyclohexamide, cycloheximide]
growth of Ole1-expressing yeast (yeast OLE1): inhibited growth of all three strains with the same potency | growth of SCD1-expressing yeast (SCD1): inhibited growth of all three strains with the same potency | growth of SCD5-expressing yeast (SCD5): inhibited growth of all three strains with the same potency
